Tests used:
Type in all cases: in vivo
[1] = test system: Echinochloa crus-galli (L.) P. Beauv. var. formosensis Ohwi; experiment: Test for Herbicidal Effect in Flooding Treatment (#1), ECHDG; details: flooding treatment at seeding, dose 2 kg/ha, visual observation on day 21
Method in brief: (§1)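 Visual scores from 0 (<10% inhibition) to 5 (≥90% or complete withering) were taken 21 days after treatment of glasshouse-grown plants. Seeds were sown in soil flooded for 24 h beforehand, and compound was applied dropwise onto the surface at 2 kg/ha as an acetone solution diluted in water with Tween 80.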

[2] = test system: Scirpus juncoides; experiment: Test for Herbicidal Effect in Flooding Treatment (#1), SCIJU; details: flooding treatment at seeding, dose 2 kg/ha, visual observation on day 21
Method in brief: as §1

[3] = test system: Cyperus microiria; experiment: Test for Herbicidal Effect in Flooding Treatment (#1), CYMIC; details: flooding treatment at seeding, dose 2 kg/ha, visual observation on day 21
Method in brief: as §1

[4] = test system: Echinochloa crus-galli (L.) P. Beauv. var. formosensis Ohwi; experiment: Test for Herbicidal Effect in Flooding Treatment (#2), ECHDG at 2-2.5 leaf stage; details: for ECHDG (2-2.5L) #2 herbicidal effect (growth inhibition grade): flooding treatment at 2-2.5 leaf stage, dose 0.2 kg/ha, visual observation on day 21
Method in brief: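 Scoring is a visual 0–5 scale of growth inhibition (0 below 10%, 5 at 90% or more or full withering), taken 21 days after treatment in a glasshouse. Dose was 0.2 kg/ha, applied as acetone/Tween 80 aqueous solution onto flooded soil once seedlings reached the 2–2.5 leaf stage.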

Row | SMILES | ECHDG #1 herbicidal effect (growth inhibition grade) [1] | SCIJU #1 herbicidal effect (growth inhibition grade) [2] | CYMIC #1 herbicidal effect (growth inhibition grade) [3] | inhibition at 200 g/ha ([4]; Echinochloa crus-galli, 504 h, flooding treatment (#2), ECHDG at 2-2.5 leaf stage, dose of 0.2 kg/ha, day 21, visual observation, read-out: growth inhibition effect) | ECHDG (2-2.5L) #2 herbicidal effect (growth inhibition grade) [4]
1 | CCOc1ccc(Cl)cc1CS(=O)(=O)c1ncc(Cl)s1 [Compound 1C-16] | 5 (Growth inhibition effect is equal to or greater than 90%, or complete withering is achieved) | 5 (Growth inhibition effect is equal to or greater than 90%, or complete withering is achieved) | 5 (Growth inhibition effect is equal to or greater than 90%, or complete withering is achieved) | ≥ 90% | 5 (Growth inhibition effect is equal to or greater than 90%, or complete withering is achieved)
2 | CCOc1cc(CS(=O)(=O)c2ncc(Cl)s2)ccc1F [Compound 1C-76] | 5 (Growth inhibition effect is equal to or greater than 90%, or complete withering is achieved) | 5 (Growth inhibition effect is equal to or greater than 90%, or complete withering is achieved) | 5 (Growth inhibition effect is equal to or greater than 90%, or complete withering is achieved) |  | 4 (Growth inhibition effect is equal to or greater than 70%, and less than 90%)
3 | CC(C)Oc1cc(F)c(CS(=O)(=O)c2ncc(Cl)s2)c(F)c1 [Compound 1C-111] | 5 (Growth inhibition effect is equal to or greater than 90%, or complete withering is achieved) | 5 (Growth inhibition effect is equal to or greater than 90%, or complete withering is achieved) | 5 (Growth inhibition effect is equal to or greater than 90%, or complete withering is achieved) |  | 5 (Growth inhibition effect is equal to or greater than 90%, or complete withering is achieved)
4 | COc1ccc(OC)c(CS(=O)(=O)c2ncc(Cl)s2)c1 [Compound 1C-126] | 5 (Growth inhibition effect is equal to or greater than 90%, or complete withering is achieved) | 5 (Growth inhibition effect is equal to or greater than 90%, or complete withering is achieved) | 5 (Growth inhibition effect is equal to or greater than 90%, or complete withering is achieved) |  | 3 (Growth inhibition effect equal to or greater than 50%, and less than 70%)
5 | CCOc1c(Cl)cc(Cl)c(Cl)c1CS(=O)(=O)c1ncc(Cl)s1 [Compound 1C-34] | 5 (Growth inhibition effect is equal to or greater than 90%, or complete withering is achieved) | 5 (Growth inhibition effect is equal to or greater than 90%, or complete withering is achieved) | 5 (Growth inhibition effect is equal to or greater than 90%, or complete withering is achieved) |  | 4 (Growth inhibition effect is equal to or greater than 70%, and less than 90%)
6 | O=S(=O)(Cc1ccc(OC(F)(F)F)cc1)c1ncc(Cl)s1 [Compound 1C-115] | 5 (Growth inhibition effect is equal to or greater than 90%, or complete withering is achieved) | 5 (Growth inhibition effect is equal to or greater than 90%, or complete withering is achieved) | 5 (Growth inhibition effect is equal to or greater than 90%, or complete withering is achieved) |  | 1 (Growth inhibition effect is equal to or greater than 10%, and less than 30%)
7 | COc1cc(F)c(CS(=O)(=O)c2ncc(Cl)s2)c(F)c1 [Compound 1C-90] | 5 (Growth inhibition effect is equal to or greater than 90%, or complete withering is achieved) | 5 (Growth inhibition effect is equal to or greater than 90%, or complete withering is achieved) | 5 (Growth inhibition effect is equal to or greater than 90%, or complete withering is achieved) |  | 5 (Growth inhibition effect is equal to or greater than 90%, or complete withering is achieved)
8 | CCOc1c(Cl)cccc1CS(=O)(=O)c1ncc(Cl)s1 [Compound 1C-10] | 5 (Growth inhibition effect is equal to or greater than 90%, or complete withering is achieved) | 5 (Growth inhibition effect is equal to or greater than 90%, or complete withering is achieved) | 5 (Growth inhibition effect is equal to or greater than 90%, or complete withering is achieved) |  | 5 (Growth inhibition effect is equal to or greater than 90%, or complete withering is achieved)
9 | CCOc1c(C)cc(CS(=O)(=O)c2ncc(Cl)s2)cc1C [Compound 1C-107] | 5 (Growth inhibition effect is equal to or greater than 90%, or complete withering is achieved) | 5 (Growth inhibition effect is equal to or greater than 90%, or complete withering is achieved) | 5 (Growth inhibition effect is equal to or greater than 90%, or complete withering is achieved) |  | 4 (Growth inhibition effect is equal to or greater than 70%, and less than 90%)
10 | CCOc1ccc(CS(=O)(=O)c2ncc(Cl)s2)cc1Cl [Compound 1C-96] | 5 (Growth inhibition effect is equal to or greater than 90%, or complete withering is achieved) | 5 (Growth inhibition effect is equal to or greater than 90%, or complete withering is achieved) | 5 (Growth inhibition effect is equal to or greater than 90%, or complete withering is achieved) |  | 4 (Growth inhibition effect is equal to or greater than 70%, and less than 90%)
11 | CCOc1ccc(CS(=O)(=O)c2ncc(Cl)s2)cc1F [Compound 1C-95] | 5 (Growth inhibition effect is equal to or greater than 90%, or complete withering is achieved) | 5 (Growth inhibition effect is equal to or greater than 90%, or complete withering is achieved) | 5 (Growth inhibition effect is equal to or greater than 90%, or complete withering is achieved) |  | 3 (Growth inhibition effect equal to or greater than 50%, and less than 70%)
12 | CCOc1cc(Cl)c(CS(=O)(=O)c2ncc(Cl)s2)cc1Cl [Compound 1C-102] | 5 (Growth inhibition effect is equal to or greater than 90%, or complete withering is achieved) | 5 (Growth inhibition effect is equal to or greater than 90%, or complete withering is achieved) | 5 (Growth inhibition effect is equal to or greater than 90%, or complete withering is achieved) |  | 4 (Growth inhibition effect is equal to or greater than 70%, and less than 90%)
